# In patent US9402908B2, “Polymeric delivery systems for active agents” (priority 2008, dated 2016):
# Conditions: same protocol, no polymer
compound,measurement,value
C[C@@H]1[C@H](O)[C@@H](C)/C=C/C=C/C=C/C=C/C=C/C=C/C=C/[C@H](O[C@@H]2O[C@H](C)[C@@H](O)[C@H](N)[C@@H]2O)C[C@@H]2O[C@](O)(C[C@@H](O)C[C@@H](O)[C@H](O)CC[C@@H](O)C[C@@H](O)CC(=O)O[C@H]1C)C[C@H](O)[C@H]2C(=O)O [Amphotericin B],water solubility of Amphotericin B,approx. 0.4 μg/mL
